According to PubChem BioAssay (NCI):
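Growth conditions: 96-well plates. Treatment: test compound, 48 hours, 5 concentrations. Analysis: linear interpolation between bracketing concentrations; unreached endpoints set to highest concentration. Abbreviation: GI50, concentration required for 50% inhibition of growth. TGI is the concentration that stops growth completely.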

What was measured:
Experiment in all cases: inhibition of tumour cell growth, NCI panel, 48 h
[1] = system: CCRF-CEM leukemia
[2] = system: RPMI-8226 leukemia
[3] = system: NCI-H226 lung
[4] = system: A498 renal
[5] = system: 786-0 renal
[6] = system: SNB-19 CNS
[7] = system: SK-MEL-5 melanoma
[8] = system: HS 578T breast
[9] = system: SK-MEL-28 melanoma
[10] = system: NCI-H23 lung
[11] = system: U251 CNS
[12] = system: HT29 colon
[13] = system: HCT-15 colon
[14] = system: OVCAR-4 ovarian
[15] = system: T-47D breast
[16] = system: K-562 leukemia
[17] = system: SR leukemia
[18] = system: MCF7 breast
[19] = system: M14 melanoma
[20] = system: CAKI-1 renal
[21] = system: HCT-116 colon
[22] = system: OVCAR-8 ovarian
[23] = system: SK-OV-3 ovarian
[24] = system: HL-60(TB) leukemia
[25] = system: UO-31 renal
[26] = system: MOLT-4 leukemia
[27] = system: DU-145 prostate
[28] = system: COLO 205 colon
[29] = system: UACC-62 melanoma
[30] = system: HCC-2998 colon
[31] = system: SF-539 CNS
[32] = system: ACHN renal
[33] = system: NCI/ADR-RES ovarian
[34] = system: IGROV1 ovarian
[35] = system: MDA-MB-435
[36] = system: OVCAR-5 ovarian
[37] = system: UACC-257 melanoma
[38] = system: TK-10 renal
[39] = system: OVCAR-3 ovarian
[40] = system: SW-620 colon
[41] = system: SNB-75 CNS
[42] = system: NCI-H460 lung
[43] = system: RXF 393 renal
[44] = system: HOP-92 NSCLC
[45] = system: A549 NSCLC
[46] = system: PC-3 prostate

## CCOP(=O)(OCC)OC[C@]12CCC(C)(C)C[C@H]1C1=CC[C@@H]3[C@@]4(C)C/C(=C\c5cccnc5)[C@H](OP(=O)(OCC)OCC)C(C)(C)[C@@H]4CC[C@@]3(C)[C@]1(C)CC2
[1]
  GI50: 1770 nM
  TGI: 4000 nM
[2]
  GI50: 939 nM
  TGI: 3330 nM
[3]
  GI50: 1440 nM
  TGI: 3130 nM
[4]
  GI50: 1640 nM
  TGI: 4440 nM
[5]
  GI50: 1860 nM
  TGI: 3890 nM
[6]
  GI50: 1660 nM
  TGI: 3140 nM
[7]
  GI50: 1420 nM
  TGI: 2730 nM
[8]
  GI50: 2060 nM
  TGI: 5380 nM
[9]
  GI50: 1710 nM
  TGI: 3270 nM
[10]
  GI50: 1610 nM
  TGI: 3290 nM
[11]
  GI50: 1610 nM
  TGI: 3200 nM
[12]
  GI50: 1520 nM
  TGI: 3160 nM
[13]
  GI50: 1560 nM
  TGI: 3430 nM
[14]
  GI50: 1700 nM
  TGI: 4370 nM
[15]
  GI50: 1580 nM
  TGI: 8350 nM
[16]
  GI50: 1180 nM
  TGI: 3530 nM
[17]
  GI50: 1020 nM
  TGI: 2780 nM
[18]
  GI50: 1370 nM
  TGI: 3040 nM
[19]
  GI50: 1800 nM
  TGI: 3700 nM
[20]
  GI50: 1090 nM
  TGI: 2650 nM
[21]
  GI50: 1250 nM
  TGI: 2580 nM
[22]
  GI50: 2290 nM
  TGI: 6520 nM
[23]
  GI50: 2100 nM
  TGI: 5280 nM
[24]
  GI50: 581 nM
  TGI: 2300 nM
[25]
  GI50: 1920 nM
  TGI: 6040 nM
[26]
  GI50: 715 nM
  TGI: 2420 nM
[27]
  GI50: 1750 nM
  TGI: 3300 nM
[28]
  GI50: 1570 nM
  TGI: 3320 nM
[29]
  GI50: 1280 nM
  TGI: 2880 nM
[30]
  GI50: 1590 nM
  TGI: 3030 nM
[31]
  GI50: 1730 nM
  TGI: 3200 nM
[32]
  GI50: 2300 nM
  TGI: 7140 nM
[33]
  GI50: 2250 nM
  TGI: 6050 nM
[34]
  GI50: 2210 nM
  TGI: 5610 nM
[35]
  GI50: 1600 nM
  TGI: 3230 nM
[36]
  GI50: 1790 nM
  TGI: 3340 nM
[37]
  GI50: 1640 nM
  TGI: 4060 nM
[38]
  GI50: 2680 nM
  TGI: 6320 nM
[39]
  GI50: 1680 nM
  TGI: 3390 nM
[40]
  GI50: 1790 nM
  TGI: 3610 nM
[41]
  GI50: 1600 nM
  TGI: 3910 nM
[42]
  GI50: 1780 nM
  TGI: 3550 nM
[43]
  GI50: 1190 nM
  TGI: 2490 nM
[44]
  GI50: 1220 nM
  TGI: 2900 nM
[45]
  GI50: 2000 nM
  TGI: 5590 nM
[46]
  GI50: 727 nM
  TGI: 2770 nM
